Experiments:
[1] = test system: sensitized guinea pig; assay: Inhibition of airway contraction (in vivo), OVA aerosol bronchospasm, airway resistance by plethysmograph
Method: To evaluate the inhibitory effect of Sophorae Radix extract prepared in Preparation Examples 1-3 against airway contraction, experiments were performed as described below by exposing antigens to a sensitized guinea pig and the results are shown in Table 2.
A Hartely male guinea pig(400-450 g, SLC, Japan) was sensitized by intravenously injecting 1.5 mL/kg of anti-ovalbumin anti-serum. 48 hrs after the sensitization, the guinea pig was administered with a drug orally. In 30 min, the guinea pig was pretreated by injecting 10 mg/kg of pyrilamine maleate, 10 mg/kg of indomethacin, and 0.1 mg/kg of propranolol subcutaneously, respectively. Then, the guinea pig was placed in Double Chamber Plethysmograph Box(HSE, Germany) installed with plethysmometer for measuring various respiratory indices and measured basic airway resistance values. 30 min after the pretreatment, 1% OVA was nebulized for 2 min in the form of aerosol by preparing a compressed air under high pressure. Airway resistance was measured for 30 min as an indicator of bronchospasm.

[2] = test system: guinea pig; assay: Antitussive effect, citric acid aerosol-induced cough; type: in vivo
Method: The method used was the method by M. H. Boskabady et al. (journal of Entnopharmacology 97, 2005, 79-82) with a bit of modifications.
A Hartley male guinea pig (450˜500 g, SLC, Japan) was orally administered with a drug. 1 hr after the administration, the guinea pig was placed in Double Chamber Plethysmograph Box (HSE, Germany) installed with plethysmometer and stabilized by allowing a 5 min of time for adaptation. After the stabilization, 0.6M citric acid was sprayed to the guinea pig for 7 min in the form of aerosol by preparing a compressed air under high pressure. The guinea pig was observed continuously by a trained observer and the number of coughs induced by the above spray of citric acid aerosol was measured by using a microphone and a speaker. The coughs were distinguished from a normal sneeze due to its particular signs such as a peculiar and high sound with its mouth open, movement of abdomen, and an instant change in air flow.

[3] = test system: Phosphodiesterase 4 (PDE4); assay: Inhibition of phosphodiesterase 4 (PDE4) activity, human U937 cells, [3H]cAMP; type: biochemical; conditions: positive control
Method: Human U937 cells were stabilized in the mixed solution comprising 50 mM Tris-HCl and 5 mM MgCl2 (pH 7.5) at 25° C. Sophorae Radix extract and 1.01 μM of ([3H]cAMP+cAMP) as a base material were combined together and allowed to react for 20 min to produce adenosine.

CC(C)(O)c1ccccc1CC[C@@H](SCC1(CC(=O)O)CC1)c1cccc(/C=C/c2ccc3ccc(Cl)cc3n2)c1 [Montelukast]
Inhibition Rate of Bronchospasm (%) ([1]; 10 mg/kg oral): 45%
Inhibition Rate of Bronchospasm (%) ([1]; 40 mg/kg oral): 75%
Cough ([2]; 10 mg/kg oral): 11.1 ± 2.9 (N = 9)
Inhibition (%) of cough ([2]; 10 mg/kg oral): 10%
Cough ([2]; 40 mg/kg oral): 11.4 ± 4.3 (N = 7)
Inhibition (%) of cough ([2]; 40 mg/kg oral): 7%

COc1ccc2c(c1)[C@]13CCCC[C@@H]1[C@H](C2)N(C)CC3 [Dextromethorphan]
Cough ([2]; 50 mg/kg oral): 11.1 ± 2.5 (N = 7)
Inhibition (%) of cough ([2]; 50 mg/kg oral): 9%
Cough ([2]; 100 mg/kg oral): 4.5 ± 2.6 (N = 10)
Inhibition (%) of cough ([2]; 100 mg/kg oral): 63%

CC(C)Cn1c(=O)n(C)c(=O)c2[nH]cnc21 [IBMX, 3-isobutyl-1-methylxanthine]
IC50 [3]: 20.7 µM

— US20080107757A1, “Sophorae Subprostratae Radix Extract for Prevention and Treatment of Respiratory Diseases” (priority 2004, published 2008)
